Measurements from ChEMBL document CHEMBL4689842, “EUbOPEN Chemogenomics Library wave 1” (2021).

Legend:
Format in all cases: toxicity, cell-based
HEK-293T = assay: Incucyte cell viability with HEK293T; conditions: human, 10 µM, compound concentration 10 uM
Fibroblast = assay: Incucyte cell viability with human fibroblast; conditions: 10 µM, compound concentration 10 uM
U2OS = assay: Incucyte cell viability with U2OS; conditions: human, 10 µM, compound concentration 10 uM
[1] = 0 h, replicate number 1, timepoint 0 hours
[2] = 6 h, replicate number 1, timepoint 6 hours
[3] = 12 h, replicate number 1, timepoint 12 hours
[4] = 18 h, replicate number 1, timepoint 18 hours
[5] = 24 h, replicate number 1, timepoint 24 hours
[6] = 12 h, replicate number 2, timepoint 12 hours
[7] = 6 h, replicate number 2, timepoint 6 hours
[8] = 24 h, replicate number 2, timepoint 24 hours
[9] = 18 h, replicate number 2, timepoint 18 hours
[10] = 0 h, replicate number 2, timepoint 0 hours
Note: filed as whole numbers so only -1 and 0 and 1 occur.

## CCCc1nc2c(C)cc(-c3nc4ccccc4n3C)cc2n1Cc1ccc(-c2ccccc2C(=O)O)cc1
HEK-293T; [1]
  Growth Rate: 0
HEK-293T; [2]
  Growth Rate: 0
HEK-293T; [3]
  Growth Rate: 0
HEK-293T; [4]
  Growth Rate: 0
HEK-293T; [5]
  Growth Rate: 0
Fibroblast; [1]
  Growth Rate: 0
Fibroblast; [2]
  Growth Rate: 1
Fibroblast; [3]
  Growth Rate: 0
Fibroblast; [6]
  Growth Rate: 1
Fibroblast; [4]
  Growth Rate: 1
Fibroblast; [5]
  Growth Rate: 0
U2OS; [1]
  Growth Rate: 0
U2OS; [7]
  Growth Rate: 1
U2OS; [3]
  Growth Rate: 1
U2OS; [4]
  Growth Rate: 1
U2OS; [5]
  Growth Rate: 1
U2OS; [8]
  Growth Rate: 0

## Cc1c(C(=O)NC2CCCCC2)sc2nc3ccc(N)cc3n12.Cl
HEK-293T; [1]
  Growth Rate: 0
HEK-293T; [2]
  Growth Rate: 0
HEK-293T; [3]
  Growth Rate: 0
HEK-293T; [4]
  Growth Rate: 0
HEK-293T; [5]
  Growth Rate: 0
Fibroblast; [1]
  Growth Rate: 0
Fibroblast; [2]
  Growth Rate: 0
Fibroblast; [3]
  Growth Rate: 1
Fibroblast; [9]
  Growth Rate: 1
Fibroblast; [5]
  Growth Rate: 1
U2OS; [1]
  Growth Rate: 0
U2OS; [2]
  Growth Rate: 1
U2OS; [7]
  Growth Rate: 0
U2OS; [3]
  Growth Rate: 1
U2OS; [4]
  Growth Rate: 1
U2OS; [5]
  Growth Rate: 1

## COc1ccc(Cn2ccc3ccc(C(=O)NO)cc32)cc1
HEK-293T; [1]
  Growth Rate: 0
HEK-293T; [10]
  Growth Rate: 1
Fibroblast; [1]
  Growth Rate: 0
Fibroblast; [7]
  Growth Rate: 1
Fibroblast; [6]
  Growth Rate: 1
Fibroblast; [4]
  Growth Rate: 1
Fibroblast; [9]
  Growth Rate: 0
Fibroblast; [5]
  Growth Rate: 1
U2OS; [1]
  Growth Rate: 0
U2OS; [10]
  Growth Rate: 1
U2OS; [2]
  Growth Rate: 0
U2OS; [3]
  Growth Rate: 1
U2OS; [6]
  Growth Rate: 0
U2OS; [4]
  Growth Rate: 1
U2OS; [5]
  Growth Rate: 0

## COc1cc2c(cc1OCCCN1CCCC1)N=C(N)C21CCC1
HEK-293T; [1]
  Growth Rate: 0
Fibroblast; [1]
  Growth Rate: 0
Fibroblast; [6]
  Growth Rate: 0
Fibroblast; [4]
  Growth Rate: 1
Fibroblast; [5]
  Growth Rate: 1
U2OS; [1]
  Growth Rate: 0
U2OS; [2]
  Growth Rate: 1
U2OS; [3]
  Growth Rate: 1
U2OS; [4]
  Growth Rate: 1
U2OS; [5]
  Growth Rate: 1

## COc1cc(-c2cn([C@H]3CCc4c(F)cccc4N(CC(F)(F)F)C3=O)nn2)ccc1-n1cnc(C)c1
HEK-293T; [1]
  Growth Rate: 0
HEK-293T; [10]
  Growth Rate: 1
HEK-293T; [2]
  Growth Rate: 0
HEK-293T; [3]
  Growth Rate: 0
HEK-293T; [4]
  Growth Rate: 1
HEK-293T; [5]
  Growth Rate: 1
HEK-293T; [8]
  Growth Rate: 0
Fibroblast; [1]
  Growth Rate: 0
Fibroblast; [2]
  Growth Rate: 0
Fibroblast; [3]
  Growth Rate: 1
Fibroblast; [6]
  Growth Rate: 0
Fibroblast; [4]
  Growth Rate: 1
Fibroblast; [9]
  Growth Rate: 0
Fibroblast; [5]
  Growth Rate: 1
Fibroblast; [8]
  Growth Rate: 0
U2OS; [1]
  Growth Rate: 0
U2OS; [2]
  Growth Rate: 0
U2OS; [7]
  Growth Rate: 1
U2OS; [3]
  Growth Rate: 0
U2OS; [6]
  Growth Rate: 1
U2OS; [4]
  Growth Rate: 0
U2OS; [9]
  Growth Rate: 1
U2OS; [5]
  Growth Rate: 0
U2OS; [8]
  Growth Rate: 1

## O=C(/C=C/N1C[C@H]2C[C@@H]1CN2c1ccccn1)c1ccccc1O
HEK-293T; [1]
  Growth Rate: 0
HEK-293T; [10]
  Growth Rate: 1
Fibroblast; [10]
  Growth Rate: 0
Fibroblast; [2]
  Growth Rate: 1
Fibroblast; [3]
  Growth Rate: 1
Fibroblast; [4]
  Growth Rate: 1
Fibroblast; [5]
  Growth Rate: 1
U2OS; [1]
  Growth Rate: 0
U2OS; [2]
  Growth Rate: 0
U2OS; [3]
  Growth Rate: 1
U2OS; [6]
  Growth Rate: 0
U2OS; [4]
  Growth Rate: 0
U2OS; [5]
  Growth Rate: 0

## CNCCN1CCC(OCc2ccccc2)CC1
HEK-293T; [1]
  Growth Rate: 1
HEK-293T; [10]
  Growth Rate: 0
HEK-293T; [7]
  Growth Rate: 1
HEK-293T; [6]
  Growth Rate: 1
HEK-293T; [4]
  Growth Rate: 1
HEK-293T; [5]
  Growth Rate: 1
Fibroblast; [10]
  Growth Rate: 0
Fibroblast; [2]
  Growth Rate: 0
Fibroblast; [7]
  Growth Rate: 1
Fibroblast; [3]
  Growth Rate: 0
Fibroblast; [6]
  Growth Rate: 1
Fibroblast; [4]
  Growth Rate: 0
Fibroblast; [5]
  Growth Rate: 1
U2OS; [10]
  Growth Rate: 0
U2OS; [2]
  Growth Rate: 1
U2OS; [3]
  Growth Rate: 1
U2OS; [4]
  Growth Rate: 1
U2OS; [5]
  Growth Rate: 1

## Cc1cccc(-c2cnc3occ(-c4ccc(C(=O)O)c(C5CCCC5)c4)c3c2)c1
HEK-293T; [1]
  Growth Rate: 1
HEK-293T; [10]
  Growth Rate: 0
HEK-293T; [4]
  Growth Rate: 1
HEK-293T; [5]
  Growth Rate: 1
Fibroblast; [10]
  Growth Rate: 1
Fibroblast; [2]
  Growth Rate: 0
Fibroblast; [3]
  Growth Rate: 0
Fibroblast; [4]
  Growth Rate: 0
Fibroblast; [5]
  Growth Rate: 0
U2OS; [1]
  Growth Rate: 0
U2OS; [2]
  Growth Rate: 0
U2OS; [3]
  Growth Rate: 1
U2OS; [6]
  Growth Rate: 0
U2OS; [4]
  Growth Rate: 0
U2OS; [9]
  Growth Rate: 1
U2OS; [5]
  Growth Rate: 1

## C[C@H]1CC(=O)Nc2cc(C(=O)NCCC3CC3)ccc2N1C(=O)N1CC2CC2C1 (stereo not given in full)
HEK-293T; [1]
  Growth Rate: 0
HEK-293T; [10]
  Growth Rate: 1
HEK-293T; [7]
  Growth Rate: 1
HEK-293T; [6]
  Growth Rate: 0
HEK-293T; [4]
  Growth Rate: 1
HEK-293T; [5]
  Growth Rate: 0
HEK-293T; [8]
  Growth Rate: 1
Fibroblast; [1]
  Growth Rate: 0
Fibroblast; [2]
  Growth Rate: 0
Fibroblast; [3]
  Growth Rate: 1
Fibroblast; [6]
  Growth Rate: 0
Fibroblast; [4]
  Growth Rate: 0
Fibroblast; [5]
  Growth Rate: 1
Fibroblast; [8]
  Growth Rate: 0
U2OS; [1]
  Growth Rate: 1
U2OS; [2]
  Growth Rate: 0
U2OS; [3]
  Growth Rate: 1
U2OS; [4]
  Growth Rate: 1
U2OS; [5]
  Growth Rate: 1

## CN(C)C(=O)c1ccc(-c2cc(C(=O)N[C@@H]3CCc4ccccc43)no2)cc1O
HEK-293T; [1]
  Growth Rate: 1
HEK-293T; [7]
  Growth Rate: 0
HEK-293T; [6]
  Growth Rate: 0
HEK-293T; [5]
  Growth Rate: 1
Fibroblast; [1]
  Growth Rate: 0
Fibroblast; [2]
  Growth Rate: 1
Fibroblast; [3]
  Growth Rate: 0
Fibroblast; [4]
  Growth Rate: 1
Fibroblast; [5]
  Growth Rate: 0
Fibroblast; [8]
  Growth Rate: 1
U2OS; [1]
  Growth Rate: 0
U2OS; [2]
  Growth Rate: 0
U2OS; [3]
  Growth Rate: 0
U2OS; [6]
  Growth Rate: 1
U2OS; [4]
  Growth Rate: 0
U2OS; [9]
  Growth Rate: 1
U2OS; [5]
  Growth Rate: 1

## C[C@@H](c1cccc(CN)c1)n1cc(Cl)cc(C(N)=O)c1=N.Cl
HEK-293T; [1]
  Growth Rate: 0
HEK-293T; [10]
  Growth Rate: 1
HEK-293T; [5]
  Growth Rate: 1
Fibroblast; [10]
  Growth Rate: 0
Fibroblast; [2]
  Growth Rate: 1
Fibroblast; [7]
  Growth Rate: 0
Fibroblast; [3]
  Growth Rate: 1
Fibroblast; [6]
  Growth Rate: 0
Fibroblast; [4]
  Growth Rate: 1
Fibroblast; [9]
  Growth Rate: 0
Fibroblast; [5]
  Growth Rate: 1
Fibroblast; [8]
  Growth Rate: 0
U2OS; [10]
  Growth Rate: 1
U2OS; [2]
  Growth Rate: 1
U2OS; [7]
  Growth Rate: 0
U2OS; [3]
  Growth Rate: 1
U2OS; [6]
  Growth Rate: 0
U2OS; [4]
  Growth Rate: 1
U2OS; [9]
  Growth Rate: 0
U2OS; [5]
  Growth Rate: 1
U2OS; [8]
  Growth Rate: 0

## O=C(NCCCN1CCOC1=O)c1cnc(NCc2cc(Br)ccc2Br)nc1NC1CCCC1
HEK-293T; [1]
  Growth Rate: 0
HEK-293T; [2]
  Growth Rate: 1
HEK-293T; [6]
  Growth Rate: 1
HEK-293T; [4]
  Growth Rate: 1
HEK-293T; [5]
  Growth Rate: 1
HEK-293T; [8]
  Growth Rate: 0
Fibroblast; [2]
  Growth Rate: 0
Fibroblast; [3]
  Growth Rate: 0
Fibroblast; [4]
  Growth Rate: 0
Fibroblast; [5]
  Growth Rate: 0
U2OS; [1]
  Growth Rate: 0
U2OS; [2]
  Growth Rate: 1
U2OS; [3]
  Growth Rate: 1
U2OS; [4]
  Growth Rate: 0
U2OS; [5]
  Growth Rate: 1

## O=C(O)c1ccc(-c2coc3ncc(-c4ccccc4)cc23)cc1Cl
HEK-293T; [1]
  Growth Rate: 0
HEK-293T; [10]
  Growth Rate: 1
HEK-293T; [2]
  Growth Rate: 0
HEK-293T; [7]
  Growth Rate: 1
HEK-293T; [3]
  Growth Rate: 0
HEK-293T; [4]
  Growth Rate: 0
HEK-293T; [5]
  Growth Rate: 0
Fibroblast; [10]
  Growth Rate: 0
Fibroblast; [2]
  Growth Rate: 1
Fibroblast; [7]
  Growth Rate: 0
Fibroblast; [3]
  Growth Rate: 0
Fibroblast; [4]
  Growth Rate: 0
Fibroblast; [5]
  Growth Rate: 0
U2OS; [10]
  Growth Rate: 0
U2OS; [2]
  Growth Rate: 1
U2OS; [7]
  Growth Rate: 0
U2OS; [3]
  Growth Rate: 1
U2OS; [4]
  Growth Rate: 1
U2OS; [5]
  Growth Rate: 1

## NC(=O)c1ccc(NC(=O)NCc2cccc(C(=O)Nc3ccc4c(c3)CNCC4)c2)cc1
HEK-293T; [1]
  Growth Rate: 0
HEK-293T; [4]
  Growth Rate: 1
HEK-293T; [5]
  Growth Rate: 0
HEK-293T; [8]
  Growth Rate: 1
Fibroblast; [1]
  Growth Rate: 0
Fibroblast; [2]
  Growth Rate: 0
Fibroblast; [7]
  Growth Rate: 1
Fibroblast; [3]
  Growth Rate: 0
Fibroblast; [4]
  Growth Rate: 1
Fibroblast; [5]
  Growth Rate: 1
U2OS; [1]
  Growth Rate: 0
U2OS; [2]
  Growth Rate: 0
U2OS; [3]
  Growth Rate: 1
U2OS; [4]
  Growth Rate: 1
U2OS; [5]
  Growth Rate: 1
